Experimental data taken from US20240425517A1, “NOVEL COMPOUND FOR DEGRADATION OF TARGET PROTEIN OR POLYPEPTIDE BY POLYUBIQUITINATION” (PRAZER THERAPEUTICS INC., priority 2021, published 2024).
Structures can show the parent of a compound that is named as a salt.

The compounds below were run against T1, Aurora A proteins (Homo sapiens, UniProt O14965) (assay: Degradation of Aurora A protein in MM.1S cell lines (Western blot densitometry)). Details: MM1.S, 24 h, read-out: Aurora A degrading capacity (%).
T1 construct: endogenous in cells; host or cells: MM.1S
T1 sequence (O14965 1-403): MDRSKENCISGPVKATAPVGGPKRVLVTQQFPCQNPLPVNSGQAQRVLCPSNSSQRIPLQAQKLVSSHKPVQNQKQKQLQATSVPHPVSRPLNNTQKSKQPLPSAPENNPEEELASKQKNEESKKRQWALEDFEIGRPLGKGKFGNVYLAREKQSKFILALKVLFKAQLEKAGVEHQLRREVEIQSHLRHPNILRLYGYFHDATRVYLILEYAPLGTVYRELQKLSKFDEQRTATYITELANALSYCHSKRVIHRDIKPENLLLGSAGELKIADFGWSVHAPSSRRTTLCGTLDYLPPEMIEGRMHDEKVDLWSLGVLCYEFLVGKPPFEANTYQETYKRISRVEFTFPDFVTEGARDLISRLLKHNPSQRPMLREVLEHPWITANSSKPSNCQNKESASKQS
Type: cell-based
Procedure: Specifically, the MM.1S cells were cultured in RPMI-1640 medium containing 10% fetal bovine serum (FBS), 1% penicillin, and streptomycin (100 U/mL), transferred to a 6-well plate, and after 24 hours, the Aurora A degraders were diluted in the RPMI culture medium and cells were treated with 5 μM concentration thereof. After treatment, the cells were incubated in a CO2 incubator for 24 hours. […] After cell culture was completed according to the experimental conditions, the cells were collected and centrifuged at 1,800 rpm for 3 minutes. The cells in the precipitate were lysed with RIPA (25 mM Tris-HCl pH 7.6, 150 mM NaCl, 1% NP-40, 1% sodium deoxycholate, 0.1% SDS, 1× Protease Inhibitor Cocktail), 5× sample buffer was added, and then heated at 100° C. for 15 minutes. The prepared sample was electrophoresed with sodium dodecyl sulfate poly acrylamide gel electrophoresis (SDS-PAGE), and then the proteins in the gel were transferred to a PVDF membrane using Trans-Blot Turbo. The membrane was treated with a 5% bovine serum albumin (BSA) solution and blocked at room temperature for 2 hours, and then Aurora A and R-actin antibodies were diluted in the 5% BSA solution to react with the membrane at 4° C. overnight. After washed with PBST (0.5% Tween20) 5 times, horse radish peroxidase (HRP)-conjugated secondary antibodies were diluted in PBST to react at room temperature for 2 hours, and then washed again with a PBST solution 5 times. After enzyme-substrate reaction was carried out using a HRP substrate, a signal was measured with chemi-doc equipment, and the densitometry of a band corresponding to the Aurora A protein detected in the Preparation Example Compounds was quantitatively analyzed. The case when the degrading capacity of each Aurora A degrader was reduced by less than 40% is indicated as +, the case when the degrading capacity was reduced by 40% to 70% (exclusive of 70) is indicated as ++, the case when the degrading capacity was reduced by 70% or more is indicated as +++ in Tables 20 to 23 below.
`COc1cc(Nc2ncc3c(n2)-c2ccc(Cl)cc2C(c2c(F)cccc2OC)=NC3)ccc1C(=O)NCCCNC(=O)c1ccc(C#CCN)o1` [4-166″, 5-(3-aminoprop-1-yn-1-yl)-N-(3-(4-((9-chloro-7-(2-fluoro-6-methoxyphenyl)-5H-benzo[c]pyrimido[4,5-e]azepin-2-yl)amino)-2-methoxybenzamido)propyl)furan-2-carboxamide trifluoroacetic acid] showed an Aurora A degradation (%) at 5 µM of less than 40%.
Compound `COC(=O)c1ccc(NC(=O)CCCNC(=O)c2ccc(Nc3ncc4c(n3)-c3ccc(Cl)cc3C(c3c(F)cccc3OC)=NC4)cc2OC)cc1C#CCN` [4-228″, methyl 2-(3-aminoprop-1-yn-1-yl)-4-(4-(4-((9-chloro-7-(2-fluoro-6-methoxyphenyl)-5H-benzo[c]pyrimido[4,5-e]azepin-2-yl)amino)-2-methoxybenzamido)butanamido)benzoate trifluoroacetic acid] has an Aurora A degradation (%) at 5 µM of 40 to 70%.
Compound `COc1cc(Nc2ncc3c(n2)-c2ccc(Cl)cc2C(c2c(F)cccc2OC)=NC3)ccc1C(=O)NCCCC(=O)Nc1ccc(C#CCN)c(CO)c1` [5-8″, N-(4-((4-(3-aminoprop-1-yn-1-yl)-3-(hydroxymethyl)phenyl)amino)-4-oxobutyl)-4-((9-chloro-7-(2-fluoro-6-methoxyphenyl)-5H-benzo[c]pyrimido[4,5-e]azepin-2-yl)amino)-2-methoxybenzamide trifluoroacetic acid] has an Aurora A degradation (%) at 5 µM of less than 40%.
`COC(=O)c1ccc(C#CCNC(=O)C2CCN(C(=O)c3ccc(Nc4ncc5c(n4)-c4ccc(Cl)cc4C(c4c(F)cccc4OC)=NC5)cc3OC)CC2)cc1C#CCN` [5-28″, methyl 2-(3-aminoprop-1-yn-1-yl)-4-(3-(1-(4-((9-chloro-7-(2-fluoro-6-methoxyphenyl)-5H-benzo[c]pyrimido[4,5-e]azepin-2-yl)amino)-2-methoxybenzoyl)piperidine-4-carboxamido)prop-1-yn-1-yl)benzoate trifluoroacetic acid] was tested, and the Aurora A degradation (%) at 5 µM was greater than 70%.
`COC(=O)c1ccc(N2CCN(CC3CCN(C(=O)c4ccc(Nc5ncc6c(n5)-c5ccc(Cl)cc5C(c5c(F)cccc5OC)=NC6)cc4OC)CC3)CC2)cc1C#CCN` [5-29″, methyl 2-(3-aminoprop-1-yn-1-yl)-4-(4-((1-(4-((9-chloro-7-(2-fluoro-6-methoxyphenyl)-5H-benzo[c]pyrimido[4,5-e]azepin-2-yl)amino)-2-methoxybenzoyl)piperidin-4-yl)methyl)piperazin-1-yl)benzoate trifluoroacetic acid] was tested, and the Aurora A degradation (%) at 5 µM was greater than 70%.
`COC(=O)c1ccc(N2CCN(C(=O)CCNC(=O)c3ccc(Nc4ncc5c(n4)-c4ccc(Cl)cc4C(c4c(F)cccc4OC)=NC5)cc3OC)CC2)cc1C#CCN` [5-32″, methyl 2-(3-aminoprop-1-yn-1-yl)-4-(4-(3-(4-((9-chloro-7-(2-fluoro-6-methoxyphenyl)-5H-benzo[c]pyrimido[4,5-e]azepin-2-yl)amino)-2-methoxybenzamido)propanoyl)piperazin-1-yl)benzoate trifluoroacetic acid] showed an Aurora A degradation (%) at 5 µM of 40 to 70%.
`COC(=O)c1ccc(NC2CCC(NC(=O)c3ccc(Nc4ncc5c(n4)-c4ccc(Cl)cc4C(c4c(F)cccc4OC)=NC5)cc3OC)CC2)cc1C#CCN` (stereo not drawn) [5-35″, methyl 2-(3-aminoprop-1-yn-1-yl)-4-((4-(4-((9-chloro-7-(2-fluoro-6-methoxyphenyl)-5H-benzo[c]pyrimido[4,5-e]azepin-2-yl)amino)-2-methoxybenzamido)cyclohexyl)amino)benzoate trifluoroacetic acid] showed an Aurora A degradation (%) at 5 µM greater than 70%.
For `COC(=O)c1ccc(N2CC3(CN(C(=O)c4ccc(Nc5ncc6c(n5)-c5ccc(Cl)cc5C(c5c(F)cccc5OC)=NC6)cc4OC)C3)C2)cc1C#CCN` [5-40″, methyl 2-(3-aminoprop-1-yn-1-yl)-4-(6-(4-((9-chloro-7-(2-fluoro-6-methoxyphenyl)-5H-benzo[c]pyrimido[4,5-e]azepin-2-yl)amino)-2-methoxybenzoyl)-2,6-diazaspiro[3.3]heptan-2-yl)benzoate trifluoroacetic acid], the Aurora A degradation (%) at 5 µM was greater than 70%.
`COc1cc(Nc2ncc3c(n2)-c2ccc(Cl)cc2C(c2c(F)cccc2OC)=NC3)ccc1C(=O)NCCCC(=O)Nc1ccc(-c2cnc(C(F)(F)F)nc2)c(C#CCN)c1` [5-81″, N-(4-((3-(3-aminoprop-1-yn-1-yl)-4-(2-(trifluoromethyl)pyrimidin-5-yl)phenyl)amino)-4-oxobutyl)-4-((9-chloro-7-(2-fluoro-6-methoxyphenyl)-5H-benzo[c]pyrimido[4,5-e]azepin-2-yl)amino)-2-methoxybenzamide trifluoroacetic acid] showed an Aurora A degradation (%) at 5 µM greater than 70%.
`COc1cc(Nc2ncc3c(n2)-c2ccc(Cl)cc2C(c2c(F)cccc2OC)=NC3)ccc1C(=O)NCCCCCC(=O)Nc1cccc(C#CCN)c1` [5-104″, N-(6-((3-(3-aminoprop-1-yn-1-yl)phenyl)amino)-6-oxohexyl)-4-((9-chloro-7-(2-fluoro-6-methoxyphenyl)-5H-benzo[c]pyrimido[4,5-e]azepin-2-yl)amino)-2-methoxybenzamide trifluoroacetic acid] gave an Aurora A degradation (%) at 5 µM greater than 70%.
Work on `COC(=O)c1ccc(C#CCNC(=O)c2ccc(Nc3ncc4c(n3)-c3ccc(Cl)cc3C(c3c(F)cccc3OC)=NC4)cc2OC)cc1C#CCN` [5-116″, methyl 2-(3-aminoprop-1-yn-1-yl)-4-(3-(4-((9-chloro-7-(2-fluoro-6-methoxyphenyl)-5H-benzo[c]pyrimido[4,5-e]azepin-2-yl)amino)-2-methoxybenzamido)prop-1-yn-1-yl)benzoate trifluoroacetic acid] yielded an Aurora A degradation (%) at 5 µM greater than 70%.
With `COC(=O)c1ccc(N(C)C(=O)CCCNC(=O)c2ccc(Nc3ncc4c(n3)-c3ccc(Cl)cc3C(c3c(F)cccc3OC)=NC4)cc2OC)cc1C#CCN` [5-150″, methyl 2-(3-aminoprop-1-yn-1-yl)-4-(4-(4-((9-chloro-7-(2-fluoro-6-methoxyphenyl)-5H-benzo[c]pyrimido[4,5-e]azepin-2-yl)amino)-2-methoxybenzamido)-N-methylbutanamido)benzoate trifluoroacetic acid] the Aurora A degradation (%) at 5 µM was less than 40%.

Same assay, conditions: MM1.S; MM.1S cells, 5 μM, 24 hours, Western blot; read-out: Aurora A degrading capacity (%)
In the case of `COC(=O)c1ccc(C(=O)NCCCNC(=O)c2ccc(Nc3ncc4c(n3)-c3ccc(Cl)cc3C(c3c(F)cccc3OC)=NC4)cc2OC)cc1C#CCN` [5-18″, methyl 2-(3-aminoprop-1-yn-1-yl)-4-((3-(4-((9-chloro-7-(2-fluoro-6-methoxyphenyl)-5H-benzo[c]pyrimido[4,5-e]azepin-2-yl)amino)-2-methoxybenzamido)propyl)carbamoyl)benzoate hydrochloride], the Aurora A degradation (%) at 5 µM is reported as greater than 70%.
`COC(=O)c1ccc(NC(=O)C2CCN(C(=O)c3ccc(Nc4ncc5c(n4)-c4ccc(Cl)cc4C(c4c(F)cccc4OC)=NC5)cc3OC)CC2)cc1C#CCN` [5-23″, methyl 2-(3-aminoprop-1-yn-1-yl)-4-(1-(4-((9-chloro-7-(2-fluoro-6-methoxyphenyl)-5H-benzo[c]pyrimido[4,5-e]azepin-2-yl)amino)-2-methoxybenzoyl)piperidine-4-carboxamido)benzoate hydrochloride] was tested, and the Aurora A degradation (%) at 5 µM was less than 40%.

Same assay, conditions: MM.1S cells, 5 μM, 24 hours, Western blot; control group
For `COc1cc(Nc2ncc3c(n2)-c2ccc(Cl)cc2C(c2c(F)cccc2OC)=NC3)ccc1C(=O)O` [Formula 2, reference compound], the “Aurora A degrading capacity” value was 0%.
